Measured values reported in patent US20230192700A1, “PYRAZOLOPYRAZINES ACTING ON CANCERS VIA INHIBITION OF CDK12” (Bayer Aktiengesellschaft, priority 2020, published 2023).
Where two headings read alike, the source gives them in different places.

Columns and labels:
[1] = target: T1, CDK9/CyclinT1 (Homo sapiens, UniProt P50750); test: CDK9/CycT1 high ATP kinase assay (TR-FRET); format: biochemical; conditions: 2 mM ATP (high ATP); median; read-out: CDK9/CyclinT1, 2 mM ATP (high ATP) IC50 - [mol/l] (median)
T1 construct: Recombinant full-length His-tagged human CDK9 and CycT1; His-tag; purchased Life Technologies PV4131; host or cells: insect cells
T1 sequence (P50750 whole entry): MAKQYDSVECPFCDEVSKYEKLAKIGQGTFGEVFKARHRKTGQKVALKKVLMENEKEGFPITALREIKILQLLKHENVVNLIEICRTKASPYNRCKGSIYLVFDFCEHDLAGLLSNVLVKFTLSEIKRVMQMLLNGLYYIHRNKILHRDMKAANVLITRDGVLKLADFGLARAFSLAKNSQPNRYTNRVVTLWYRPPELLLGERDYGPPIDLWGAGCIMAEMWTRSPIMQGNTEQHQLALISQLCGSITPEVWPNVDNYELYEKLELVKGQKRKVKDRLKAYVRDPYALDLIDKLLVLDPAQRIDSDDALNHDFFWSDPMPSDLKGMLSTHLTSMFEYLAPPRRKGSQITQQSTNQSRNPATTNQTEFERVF
T1 sequence (O60563 whole entry partner): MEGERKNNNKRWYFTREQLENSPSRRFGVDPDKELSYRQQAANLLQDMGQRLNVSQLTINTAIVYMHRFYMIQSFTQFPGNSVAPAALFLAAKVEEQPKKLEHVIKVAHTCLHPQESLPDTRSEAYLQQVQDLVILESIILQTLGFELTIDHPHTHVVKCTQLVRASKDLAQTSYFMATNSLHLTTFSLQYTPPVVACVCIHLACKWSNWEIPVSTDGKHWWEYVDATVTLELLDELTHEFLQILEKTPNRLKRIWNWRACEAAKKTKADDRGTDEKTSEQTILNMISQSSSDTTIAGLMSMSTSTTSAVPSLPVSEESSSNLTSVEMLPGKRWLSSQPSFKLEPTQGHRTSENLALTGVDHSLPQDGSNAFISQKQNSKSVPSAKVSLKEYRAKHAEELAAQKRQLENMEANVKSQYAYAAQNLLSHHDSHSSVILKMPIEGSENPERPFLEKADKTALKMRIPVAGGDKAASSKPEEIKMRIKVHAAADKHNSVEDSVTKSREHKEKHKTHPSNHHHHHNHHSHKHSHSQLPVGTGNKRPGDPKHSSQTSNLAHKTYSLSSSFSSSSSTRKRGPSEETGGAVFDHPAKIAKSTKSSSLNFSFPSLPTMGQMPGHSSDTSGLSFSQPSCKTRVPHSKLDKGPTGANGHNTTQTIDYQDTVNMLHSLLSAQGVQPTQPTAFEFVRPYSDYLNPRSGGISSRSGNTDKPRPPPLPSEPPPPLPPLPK
Method in brief: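 Full-length His-tagged human CDK9/CycT1 (insect cell) at ~0.5 µg/mL, preincubated with compound 15 min at 22 °C in Tris pH 8.0 buffer, then reacted 25 min with 2 mM ATP and 0.75 µM biotinylated peptide (final). Phospho-substrate detected by TR-FRET (anti-RB pSer807/811, Eu/XL665), 665/620 nm ratio normalised to no-inhibitor and no-enzyme controls.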

[2] = system: BRCA1 mRNA expression in MDA-MB-231 cells; test: qRT-PCR assay: inhibition of BRCA1 mRNA expression in MDA-MB-231 cells; format: cell-based, human; conditions: 24 h exposure, BRCA1 mRNA normalised to GAPDH, median, read-out: RTqPCR-MDA-MB-231 IC50 [mol/l] BRCA1 (median)
Procedure: (§1) 3. qRT-PCR Assay: BRCA1, ATR, MCL1 in MDA-MB-231, CAL-120
(§2) Tissue cultured human MDA-MB-231 human breast cancer cells were plated in 500 microL per well at 200,000 cells/well in a 24 well microtiter plate. After 24 h, the cells were exposed continuously for 24 h to test substances (substances were added with Tecan HP D300 Dispenser). RNA was prepared using Qiagen RNeasy MiniKit (#74106), RNA was quantified using a NanoDrop Equipment, and 600 nano gamms of RNA was coverted to cDNA using a SuperScript VILO kit (Thermofisher #11755050) followed by qPCR amplification. BRCA1 and ATR gene expression was measured by RT-qPCR and normalised to GAPDH housekeeping gene expression. qPCR primer sets have been purchased from Thermo Fisher Scientific/Applied Biosystems: BRCA1, # Hs 01556193; ATR, #Hs 00992123; GAPDH, #Hs 03929097.

[3] = target: T2, CDK12 (Homo sapiens, UniProt Q9NYV4); test: CDK12 protein level in CAL-120 cells (Protein Simple); format: cell-based; conditions: 18 h, CDK12/HSP90 peak area ratio, median, read-out: CDK12 protein level in CAL-120 breast ca cells DC50 - [mol/l] (median)
T2 construct: endogenous in cells; host or cells: CAL-120 human breast cancer cells (DSMZ ACC 459)
T2 sequence (Q9NYV4 whole entry): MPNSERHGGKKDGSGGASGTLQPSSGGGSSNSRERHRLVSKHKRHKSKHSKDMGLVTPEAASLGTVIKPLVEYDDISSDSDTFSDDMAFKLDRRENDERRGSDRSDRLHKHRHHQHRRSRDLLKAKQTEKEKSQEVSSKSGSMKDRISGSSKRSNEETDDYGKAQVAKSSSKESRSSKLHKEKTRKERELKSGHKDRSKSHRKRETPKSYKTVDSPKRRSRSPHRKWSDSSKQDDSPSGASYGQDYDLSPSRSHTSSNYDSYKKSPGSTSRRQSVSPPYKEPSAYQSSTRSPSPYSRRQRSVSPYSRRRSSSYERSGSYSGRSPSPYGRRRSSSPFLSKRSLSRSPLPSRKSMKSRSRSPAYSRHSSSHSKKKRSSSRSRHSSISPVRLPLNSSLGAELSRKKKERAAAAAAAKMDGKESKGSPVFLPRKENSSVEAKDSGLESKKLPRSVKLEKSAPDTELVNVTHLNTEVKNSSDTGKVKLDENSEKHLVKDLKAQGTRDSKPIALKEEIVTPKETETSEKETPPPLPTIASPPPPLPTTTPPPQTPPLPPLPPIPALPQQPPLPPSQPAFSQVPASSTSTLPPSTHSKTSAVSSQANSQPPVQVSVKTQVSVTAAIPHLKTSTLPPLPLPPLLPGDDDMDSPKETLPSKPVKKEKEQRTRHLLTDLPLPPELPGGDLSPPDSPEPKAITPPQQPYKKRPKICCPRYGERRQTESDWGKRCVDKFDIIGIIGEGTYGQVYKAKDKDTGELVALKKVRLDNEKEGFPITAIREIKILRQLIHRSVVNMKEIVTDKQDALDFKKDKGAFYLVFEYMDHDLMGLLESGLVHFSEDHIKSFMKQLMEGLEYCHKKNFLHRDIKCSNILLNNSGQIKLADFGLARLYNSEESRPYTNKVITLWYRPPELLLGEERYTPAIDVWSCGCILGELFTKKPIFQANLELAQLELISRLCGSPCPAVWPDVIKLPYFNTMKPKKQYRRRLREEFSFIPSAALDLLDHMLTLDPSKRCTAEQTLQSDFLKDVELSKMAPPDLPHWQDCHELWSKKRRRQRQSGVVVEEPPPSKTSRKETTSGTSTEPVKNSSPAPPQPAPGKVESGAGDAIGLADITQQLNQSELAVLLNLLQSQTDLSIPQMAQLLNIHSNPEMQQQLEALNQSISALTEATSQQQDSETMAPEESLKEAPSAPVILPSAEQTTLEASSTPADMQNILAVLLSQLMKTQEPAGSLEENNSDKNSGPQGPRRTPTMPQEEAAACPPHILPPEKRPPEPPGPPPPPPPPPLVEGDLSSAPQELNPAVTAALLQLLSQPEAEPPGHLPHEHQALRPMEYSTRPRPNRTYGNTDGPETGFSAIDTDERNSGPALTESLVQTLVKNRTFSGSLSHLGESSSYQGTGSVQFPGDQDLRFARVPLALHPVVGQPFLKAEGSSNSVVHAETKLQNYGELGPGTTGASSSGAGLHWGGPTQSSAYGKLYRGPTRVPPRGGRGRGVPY
T2 sequence (O75909 whole entry partner): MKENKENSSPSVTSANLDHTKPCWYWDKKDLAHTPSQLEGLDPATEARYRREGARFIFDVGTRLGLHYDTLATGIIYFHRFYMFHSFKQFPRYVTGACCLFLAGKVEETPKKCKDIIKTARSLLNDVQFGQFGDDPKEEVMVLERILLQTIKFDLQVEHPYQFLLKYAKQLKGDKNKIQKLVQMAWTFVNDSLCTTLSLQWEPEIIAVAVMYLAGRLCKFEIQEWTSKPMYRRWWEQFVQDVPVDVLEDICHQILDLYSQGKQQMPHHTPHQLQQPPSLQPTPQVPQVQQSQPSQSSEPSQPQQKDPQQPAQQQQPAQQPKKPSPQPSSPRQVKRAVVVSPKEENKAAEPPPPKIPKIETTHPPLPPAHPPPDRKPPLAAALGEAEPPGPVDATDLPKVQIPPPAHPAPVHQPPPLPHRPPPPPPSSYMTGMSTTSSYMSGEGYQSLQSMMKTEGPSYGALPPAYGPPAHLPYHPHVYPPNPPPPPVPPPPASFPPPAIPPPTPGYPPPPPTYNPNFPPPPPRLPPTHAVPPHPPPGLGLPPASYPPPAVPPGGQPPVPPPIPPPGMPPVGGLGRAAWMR
Procedure: 5. CDK12 protein level: Protein Simple (CDK12, CAL-120), Westernblot (CDK9, 12, 13)
CAL-120 human breast cancer cells (DSMZ ACC 459) were seeded at 300,000 cells/well in 6-well plates containing 2 mL of growth medium (DMEM, 10%FCS, glutamine) and incubated for 24 h at 37° C. in an humidified incubator. Test compounds were added at various concentrations, control wells received solvent (DMSO), and the plates were incubated for another 18h at 37° C. Cells were washed 2 times with PBS and lysed in 75 microL lysis buffer (MSD-Puffer (MSD, #R6OTX-2), +1% SDS+PhosSTOP (Roche #04906837001)+complete mini (Roche #04693159001)) by scraping. The lysates were pushed 2 times through Qiashedders followed by centrifugation at 14,000 rpm for 30-50 sec. The supernatant was stored at -20° C. […] CDK12 and HSP90 (loading control) were detected using anti-human CDK12 antibody (Cell Signaling Technologies (CST) #11793) at 1:25 dilution and anti-human HSP90 antibody (CST #4877) at 1:5,000 dilution. CDK12 and HSP90 peak areas were determined using Protein Simple Compass software. Ratio of CDK12/HSP90 peak areas were calculated for each sample, and DC50 values (degrading concentration to achieve 50% reduction relative to vehicle treated control) were determined by means of a 4 parameter fit.

[4] = system: BRCA1 mRNA expression in CAL-120 cells; test: qRT-PCR assay: inhibition of BRCA1 mRNA expression in CAL-120 cells; format: cell-based; conditions: Homo sapiens, median, read-out: RTqPCR-CAL-120 IC50 [mol/l] BRCA1 (median)
Procedure: as §1, §2

CN1CCC(n2nc(NCc3nc4c(Br)cccc4[nH]3)c3ncc(C4CC4)nc32)CC1 [Example 20, N-[(4-bromo-1H-benzimidazol-2-yl)methyl]-6-cyclopropyl-1-(1-methylpiperidin-4-yl)-1H-pyrazolo[3,4-b]pyrazin-3-amine]
IC50 [1]: > 20000 nM
IC50 ([2]; Homo sapiens, MDA-MB-231, 24 h): 20.6 nM

Fc1cccc2[nH]c(CNc3nn(C4CCOCC4)c4nc(C5CC5)cnc34)nc12 [Example 23, 6-cyclopropyl-N-[(4-fluoro-1H-benzimidazol-2-yl)methyl]-1-(oxan-4-yl)-1H-pyrazolo[3,4-b]pyrazin-3-amine]
IC50 [1]: > 20000 nM
IC50 ([2]; Homo sapiens, MDA-MB-231, 24 h): 30.9 nM

COCCC(C)n1nc(NCc2nc3ccccc3[nH]2)c2ncc(C3CC3)nc21 (single isomer, unassigned; (+)) [Example 59, (+)-N-[(1H-benzimidazol-2-yl)methyl]-6-cyclopropyl-1-[4-methoxybutan-2-yl]-1H-pyrazolo[3,4-b]pyrazin-3-amine]
IC50 [1]: > 20000 nM
IC50 [2]: 248 nM

CN1CCC(n2nc(NCc3nc4cc(F)c(F)cc4[nH]3)c3ncc(C4CC4)nc32)CC1 [Example 30, 6-cyclopropyl-N-[(5,6-difluoro-1H-benzimidazol-2-yl)methyl]-1-(1-methylpiperidin-4-yl)-1H-pyrazolo[3,4-b]pyrazin-3-amine]
IC50 [1]: > 20000 nM
IC50 ([2]; Homo sapiens, MDA-MB-231, 24 h): 11.7 nM

CN1CCCC(n2nc(NCc3nc4ccccc4[nH]3)c3ncc(C4CC4)nc32)CC1 (racemic) [Example 34, (±)-N-[(1H-benzimidazol-2-yl)methyl]-6-cyclopropyl-1-(1-methylazepan-4-yl)-1H-pyrazolo[3,4-b]pyrazin-3-amine]
IC50 [1]: > 20000 nM
IC50 ([2]; Homo sapiens, MDA-MB-231, 24 h): 22.5 nM

c1ccc2[nH]c(CNc3nn(C4CCOC4)c4nc(C5CC5)cnc34)nc2c1 (single isomer, unassigned) [Example 17, (+) or (−)-N-[(1H-benzimidazol-2-yl)methyl]-6-cyclopropyl-1-(oxolan-3-yl)-1H-pyrazolo[3,4-b]pyrazin-3-amine]
IC50 [1]: > 20000 nM
IC50 ([2]; Homo sapiens, MDA-MB-231, 24 h): 10.9 nM

CC1CC(n2nc(NCc3nc4ccccc4[nH]3)c3ncc(C4CC4)nc32)CCO1 (racemic) [Example 44, (±)-cis/trans-N-[(1H-benzimidazol-2-yl)methyl]-6-cyclopropyl-1-(2-methyloxan-4-yl)-1H-pyrazolo[3,4-b]pyrazin-3-amine]
IC50 [1]: > 20000 nM
IC50 ([2]; Homo sapiens, MDA-MB-231, 24 h): 24.2 nM

CN1CCC(n2nc(NCc3nc4ccccc4[nH]3)c3ncc(C4CC4)nc32)CC1 [Example 1, N-[(1H-benzimidazol-2-yl)methyl]-6-cyclopropyl-1-(1-methylpiperidin-4-yl)-1H-pyrazolo[3,4-b]pyrazin-3-amine]
IC50 [1]: > 20000 nM
IC50 ([2]; Homo sapiens, MDA-MB-231, 24 h): 13.7 nM

c1ccc2[nH]c(CNc3nn(C4CCOCC4)c4nc(C5CC5)cnc34)nc2c1 [Example 16, N-[(1H-benzimidazol-2-yl)methyl]-6-cyclopropyl-1-(oxan-4-yl)-1H-pyrazolo[3,4-b]pyrazin-3-amine]
DC50 [3]: 31.1 nM
IC50 [1]: > 20000 nM
IC50 ([2]; Homo sapiens, MDA-MB-231, 24 h): 12.9 nM
IC50 [4]: 64.3 nM

Cc1c(F)ccc2[nH]c(CNc3nn(C4CCN(C)CC4)c4nc(C5CC5)cnc34)nc12 [Example 26, 6-cyclopropyl-N-[(5-fluoro-4-methyl-1H-benzimidazol-2-yl)methyl]-1-(1-methylpiperidin-4-yl)-1H-pyrazolo[3,4-b]pyrazin-3-amine]
IC50 [1]: > 20000 nM
IC50 ([2]; Homo sapiens, MDA-MB-231, 24 h): 20 nM
